Toxic doses and inconclusive results are not listed. Rule as the data show it: active = T/C of 150% or more; inactive = T/C below 125%.
Tested on: L1210 leukemia ip in BDF1 mice, survival T/C
Test: NCI In Vivo Anticancer Drug Screen. Data for tumor model L1210 Leukemia (intraperitoneal) in B6D2F1 (BDF1) mice
Details: endpoint: mean survival time, higher = longer survival
In short: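 Mice bearing the transplanted tumor received compound or vehicle. Survival of the treated group was divided by that of the vehicle-treated control group to give the ratio.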

[1] = dose: 50.0 mg/kg/injection, schedule: Q04DX003 (ip), vehicle: Klucel (hydroxypropylcellulose) (HPC)
[2] = dose: 100.0 mg/kg/injection, schedule: Q04DX003 (ip), vehicle: Klucel (hydroxypropylcellulose) (HPC)
[3] = dose: 100.0 mg/kg/injection, schedule: Q01DX001 (ip), vehicle: carboxymethylcellulose (CMC)
[4] = dose: 200.0 mg/kg/injection, schedule: Q01DX001 (ip), vehicle: carboxymethylcellulose (CMC)
[5] = dose: 100.0 mg/kg/injection, schedule: Q01DX009 (ip), vehicle: saline with Tween-80
[6] = dose: 200.0 mg/kg/injection, schedule: Q01DX009 (ip), vehicle: saline with Tween-80
[7] = dose: 100.0 mg/kg/injection, schedule: Q04DX002 (ip), vehicle: saline with Tween-80
[8] = dose: 200.0 mg/kg/injection, schedule: Q04DX002 (ip), vehicle: saline with Tween-80
[9] = dose: 400.0 mg/kg/injection, schedule: Q01DX009 (ip), vehicle: saline with Tween-80
[10] = dose: 400.0 mg/kg/injection, schedule: Q04DX002 (ip), vehicle: saline with Tween-80
[11] = dose: 100.0 mg/kg/injection, schedule: Q01DX001 (ip), vehicle: saline
[12] = dose: 100.0 mg/kg/injection, schedule: Q04DX003 (ip), vehicle: saline
[13] = dose: 200.0 mg/kg/injection, schedule: Q01DX001 (ip), vehicle: saline
[14] = dose: 200.0 mg/kg/injection, schedule: Q04DX003 (ip), vehicle: saline
[15] = dose: 400.0 mg/kg/injection, schedule: Q01DX001 (ip), vehicle: saline
[16] = dose: 400.0 mg/kg/injection, schedule: Q04DX003 (ip), vehicle: saline
[17] = dose: 50.0 mg/kg/injection, schedule: Q01DX009 (ip), vehicle: Klucel (hydroxypropylcellulose) (HPC)
[18] = dose: 100.0 mg/kg/injection, schedule: Q01DX009 (ip), vehicle: Klucel (hydroxypropylcellulose) (HPC)
[19] = dose: 50.0 mg/kg/injection, schedule: Q01DX001 (ip), vehicle: carboxymethylcellulose (CMC)
[20] = dose: 400.0 mg/kg/injection, schedule: Q01DX001 (ip), vehicle: carboxymethylcellulose (CMC)
[21] = dose: 100.0 mg/kg/injection, schedule: Q01DX009 (ip), vehicle: saline

Measured: T/C

O=Cc1cc(Br)c(O)c(Br)c1
inactive: [1] 100 % of control | [2] 101 % of control | dose: 200.0 mg/kg/injection, schedule: Q04DX003 (ip), vehicle: Klucel (hydroxypropylcellulose) (HPC) 100 % of control

CN1C2CCC1CC(OC(=O)C(CO)c1ccccc1)C2 (centres undefined)
inactive: dose: 31.25 mg/kg/injection, schedule: Q01DX Z (ip), vehicle: saline 100 % of control | dose: 62.5 mg/kg/injection, schedule: Q01DX Z (ip), vehicle: saline 102 % of control | dose: 125.0 mg/kg/injection, schedule: Q01DX Z (ip), vehicle: saline 98 % of control

CCN(CC)CCOC(=O)C1c2ccccc2Oc2ccccc21
inactive: [3] 102 % of control | [4] 94 % of control

O=C(O)C[S+]1CCSCC1
inactive: dose: 100.0 mg/kg/injection, schedule: Q04DX002 (ip), vehicle: saline 105 % of control | dose: 200.0 mg/kg/injection, schedule: Q04DX002 (ip), vehicle: saline 105 % of control | dose: 400.0 mg/kg/injection, schedule: Q04DX002 (ip), vehicle: saline 105 % of control

COC1/C=C\CC2=CCCC=C2CC1 (centres undefined)
inactive: dose: 50.0 mg/kg/injection, schedule: Q01DX009 (ip), vehicle: saline with Tween-80 112 % of control | [5] 123 % of control | [6] 105 % of control

FC(F)(F)c1cccc(NC(=S)Nc2ccccc2S)c1
inactive: [5] 103 % of control | [7] 93 % of control | [6] 98 % of control | [8] 96 % of control | [9] 124 % of control | [10] 101 % of control

O=C(N/N=C/C=C/c1ccccc1)[C@H](O)[C@@H](O)C(=O)N/N=C/C=C/c1ccccc1
inactive: [11] 92 % of control | dose: 100.0 mg/kg/injection, schedule: Q01DX009 (ip), vehicle: acetone 90 % of control | [12] 88 % of control | [13] 93 % of control | [14] 88 % of control | [15] 93 % of control | dose: 400.0 mg/kg/injection, schedule: Q01DX009 (ip), vehicle: acetone 92 % of control | [16] 97 % of control

NC(N)=NCCCC(NC(=O)c1ccccc1)C(=O)Nc1ccc([N+](=O)[O-])cc1 (centres undefined)
inactive: [5] 89 % of control | [12] 104 % of control | [6] 95 % of control | [14] 100 % of control | [9] 110 % of control | [16] 98 % of control

CC(=O)OCC(OC(C)=O)C(OC(C)=O)C(OC(C)=O)C(OC(C)=O)C(C=O)OC(C)=O (centres undefined)
inactive: dose: 100.0 mg/kg/injection, schedule: Q04DX003 (ip), vehicle: saline with Tween-80 92 % of control | dose: 200.0 mg/kg/injection, schedule: Q04DX003 (ip), vehicle: saline with Tween-80 95 % of control | dose: 400.0 mg/kg/injection, schedule: Q04DX003 (ip), vehicle: saline with Tween-80 106 % of control

CCCCCCCCSC(C)(C)C
inactive: [12] 102 % of control | [14] 101 % of control | [16] 93 % of control

O=C(/C=C(\C(=O)c1ccccc1)c1ccccc1)c1ccc(Cl)cc1
inactive: [17] 103 % of control | dose: 75.0 mg/kg/injection, schedule: Q01DX001 (ip), vehicle: Klucel (hydroxypropylcellulose) (HPC) 100 % of control | [18] 92 % of control | dose: 150.0 mg/kg/injection, schedule: Q01DX001 (ip), vehicle: Klucel (hydroxypropylcellulose) (HPC) 95 % of control | dose: 200.0 mg/kg/injection, schedule: Q01DX009 (ip), vehicle: Klucel (hydroxypropylcellulose) (HPC) 94 % of control | dose: 300.0 mg/kg/injection, schedule: Q01DX001 (ip), vehicle: Klucel (hydroxypropylcellulose) (HPC) 108 % of control

CCCC/C(=N\N=C(N)N)c1ccc(F)cc1
inactive: dose: 15.0 mg/kg/injection, schedule: Q01DX Z (ip), vehicle: methylcellulose (MC) 104 % of control | dose: 15.0 mg/kg/injection, schedule: Q01DX Z (oral), vehicle: methylcellulose (MC) 94 % of control | dose: 30.0 mg/kg/injection, schedule: Q01DX Z (ip), vehicle: methylcellulose (MC) 93 % of control | dose: 30.0 mg/kg/injection, schedule: Q01DX Z (oral), vehicle: methylcellulose (MC) 94 % of control

COc1ccccc1CN1CCCN(Cc2ccccc2OC)C1c1ccccc1F
inactive: [19] 114 % of control | [3] 108 % of control | [4] 96 % of control | [20] 112 % of control

CC(=O)[C@H]1CC[C@H]2[C@@H]3CC[C@@H]4C[C@@H](O)CC[C@]4(C)[C@H]3CC[C@]12C
inactive: [7] 97 % of control | [8] 100 % of control | [10] 90 % of control

CCCCC(=O)N/N=C\c1ccc(N(CC)CC)cc1
inactive: [3] 95 % of control | [4] 87 % of control | [20] 87 % of control

O=C(O)c1c(Cl)n(-c2ccccc2)c2ccccc12
inactive: dose: 50.0 mg/kg/injection, schedule: Q04DX002 (ip), vehicle: Klucel (hydroxypropylcellulose) (HPC) 101 % of control | dose: 100.0 mg/kg/injection, schedule: Q04DX002 (ip), vehicle: Klucel (hydroxypropylcellulose) (HPC) 104 % of control | dose: 200.0 mg/kg/injection, schedule: Q04DX002 (ip), vehicle: Klucel (hydroxypropylcellulose) (HPC) 93 % of control

CC1(C)C=CC(C)(C)c2c(NS(=O)(=O)c3ccccc3)ccc(NS(=O)(=O)c3ccccc3)c21
inactive: [5] 97 % of control | [6] 92 % of control | [9] 94 % of control

NC(=O)C1C(=O)OC2CCCCC21 (centres undefined)
inactive: [11] 92 % of control | [13] 87 % of control | [15] 97 % of control

OC[C@@H]1CC[C@H](n2cnc3c(Cl)ncnc32)C1
inactive: [11] 103 % of control | [13] 101 % of control | [15] 101 % of control

CC1CC(C(C)(C)C)CCC1S (centres undefined)
inactive: [21] 95 % of control | dose: 200.0 mg/kg/injection, schedule: Q01DX009 (ip), vehicle: saline 88 % of control

CS(=O)(=O)OCCN(CCOS(C)(=O)=O)c1ccc(/C=N/Nc2ncnc3nc[nH]c23)cc1
inactive: dose: 12.5 mg/kg/injection, schedule: Q01DX009 (ip), vehicle: saline 124 % of control | dose: 50.0 mg/kg/injection, schedule: Q01DX001 (ip), vehicle: saline 119 % of control | dose: 89.0 mg/kg/injection, schedule: Q01DX001 (ip), vehicle: other 105 % of control | [11] 107 % of control | [21] 98 % of control | dose: 133.0 mg/kg/injection, schedule: Q01DX001 (ip), vehicle: other 110 % of control | dose: 200.0 mg/kg/injection, schedule: Q01DX001 (ip), vehicle: other 103 % of control | [13] 119 % of control | dose: 300.0 mg/kg/injection, schedule: Q01DX001 (ip), vehicle: other 114 % of control | [15] 113 % of control

CC(=O)c1coc(=O)cc1O
inactive: dose: 25.0 mg/kg/injection, schedule: Q01DX009 (ip), vehicle: Klucel (hydroxypropylcellulose) (HPC) 102 % of control | dose: 25.0 mg/kg/injection, schedule: Q04DX003 (ip), vehicle: Klucel (hydroxypropylcellulose) (HPC) 97 % of control | [17] 98 % of control | [1] 97 % of control | dose: 100.0 mg/kg/injection, schedule: Q01DX001 (ip), vehicle: Klucel (hydroxypropylcellulose) (HPC) 103 % of control | [18] 98 % of control | [2] 100 % of control

C1=NCCCN2CCCCC12 (centres undefined)
inactive: dose: 2.35 mg/kg/injection, schedule: Q01DX009 (ip), vehicle: Klucel (hydroxypropylcellulose) (HPC) 92 % of control | dose: 4.69 mg/kg/injection, schedule: Q01DX009 (ip), vehicle: Klucel (hydroxypropylcellulose) (HPC) 92 % of control | dose: 9.38 mg/kg/injection, schedule: Q01DX009 (ip), vehicle: Klucel (hydroxypropylcellulose) (HPC) 97 % of control | dose: 18.75 mg/kg/injection, schedule: Q01DX009 (ip), vehicle: Klucel (hydroxypropylcellulose) (HPC) 106 % of control

C[Si](C)(C)OCCCCCCCl
inactive: [19] 108 % of control | [3] 101 % of control | [4] 95 % of control | [20] 103 % of control
